Here are results for one molecule from paper PMC9913288, “Suppression of Cancer Cell Stemness and Drug Resistance via MYC Destabilization by Deubiquitinase USP45 Inhibition with a Natural Small Molecule” (Cancers, 2023).

The target in the assay is T1, USP45 (Homo sapiens, UniProt Q70EL2).
T1 construct: USP45-His purified from E. coli BL21, biotinylated
T1 sequence (Q70EL2 1-814): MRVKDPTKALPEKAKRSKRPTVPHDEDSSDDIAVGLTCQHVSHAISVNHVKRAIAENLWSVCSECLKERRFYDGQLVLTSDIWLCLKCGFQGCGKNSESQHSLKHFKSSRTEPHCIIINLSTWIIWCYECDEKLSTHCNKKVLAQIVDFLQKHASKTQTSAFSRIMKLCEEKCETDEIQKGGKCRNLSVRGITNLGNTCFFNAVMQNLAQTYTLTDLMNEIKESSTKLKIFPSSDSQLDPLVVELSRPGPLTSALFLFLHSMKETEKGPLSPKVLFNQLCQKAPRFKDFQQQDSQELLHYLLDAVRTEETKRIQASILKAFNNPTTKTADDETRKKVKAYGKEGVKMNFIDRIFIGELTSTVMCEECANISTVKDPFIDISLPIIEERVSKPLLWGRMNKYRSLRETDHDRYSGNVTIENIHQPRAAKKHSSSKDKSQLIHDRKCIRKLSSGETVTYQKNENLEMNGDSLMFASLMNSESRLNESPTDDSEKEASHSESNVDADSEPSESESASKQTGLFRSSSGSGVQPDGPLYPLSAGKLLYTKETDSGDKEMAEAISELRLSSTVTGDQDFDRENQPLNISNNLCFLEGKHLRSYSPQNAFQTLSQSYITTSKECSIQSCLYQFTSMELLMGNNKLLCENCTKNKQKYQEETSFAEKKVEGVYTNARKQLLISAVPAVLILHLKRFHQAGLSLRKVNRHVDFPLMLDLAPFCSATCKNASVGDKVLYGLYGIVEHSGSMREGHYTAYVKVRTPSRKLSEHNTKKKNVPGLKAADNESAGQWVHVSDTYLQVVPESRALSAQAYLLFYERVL
Nature of the assay: BLI (OCTET K2) with purified biotinylated USP45. It counts as binding.

Structures are written as SMILES.

In the case of `COc1c(O)cc2oc3cc(O)c(CC=C(C)C)c(O)c3c(=O)c2c1CC=C(C)C` [AMG, α-mangostin], the dissociation constant Kd – broadly, the free concentration of one partner at which half of the binding sites on the other are occupied at equilibrium, for simple one-to-one binding – came out at 19.3 µM.
